# Results reported in patent US20260285872A1, “COMPOUNDS AND METHODS FOR DEGRADING GSPT1” (priority 2023, published 2026).
# Like-named read-outs stand apart in the source and are kept apart here.
# How the values were obtained:
# [1] = test system: NCI-H1155 cells; assay: NSCLC cell viability, CellTiter-Glo, NCI-H1155 cells; type: cell-based; details: Homo sapiens, read-out: Cell viability classification (NCI-H1155)
# [2] = biological target: GSPT1 (Homo sapiens, UniProt P15170+Q96SW2); type: cell-based
# Method: GSPT1_HiBIT_HEK293 cells were culture in DMEM medium with 10% FBS under standard tissue culture conditions. […] GSPT1 level was determined in along with the Nano-Glo HiBiT Lytic Detection system [Promega N3050] with final concentration of 1×. The luminescence was normalized to that of DMSO-treated samples. DC50 values were obtained using three-parameter non-linear regressions using Prism (GraphPad).
# [3] = NCI-H1155 cells, CellTiter-Glo, 72 hours of treatment
# [4] = read-out: GSPT1 degradation classification; DC50, GSPT1_HiBIT_HEK293 cells, 16 hours, Nano-Glo HiBiT Lytic Detection
# [5] = DC50, GSPT1_HiBIT_HEK293 cells, 16 hours, Nano-Glo HiBiT Lytic Detection; read-out: GSPT1 degradation classification
# Chain of GSPT1 (P15170 whole entry): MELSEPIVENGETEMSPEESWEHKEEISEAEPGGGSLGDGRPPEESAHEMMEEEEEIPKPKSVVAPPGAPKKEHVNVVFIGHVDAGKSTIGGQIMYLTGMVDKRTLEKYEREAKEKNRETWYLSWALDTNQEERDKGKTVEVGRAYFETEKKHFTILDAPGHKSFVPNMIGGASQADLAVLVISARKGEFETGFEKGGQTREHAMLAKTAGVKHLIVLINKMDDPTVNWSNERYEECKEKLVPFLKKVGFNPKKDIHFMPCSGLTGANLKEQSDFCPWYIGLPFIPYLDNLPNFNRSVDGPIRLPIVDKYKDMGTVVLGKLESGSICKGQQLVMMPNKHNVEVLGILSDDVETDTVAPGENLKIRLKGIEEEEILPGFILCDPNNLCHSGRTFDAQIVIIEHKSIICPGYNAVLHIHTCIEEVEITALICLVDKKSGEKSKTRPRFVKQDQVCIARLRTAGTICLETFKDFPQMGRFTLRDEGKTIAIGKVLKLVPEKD
# Chain of GSPT1 (Q96SW2 whole entry): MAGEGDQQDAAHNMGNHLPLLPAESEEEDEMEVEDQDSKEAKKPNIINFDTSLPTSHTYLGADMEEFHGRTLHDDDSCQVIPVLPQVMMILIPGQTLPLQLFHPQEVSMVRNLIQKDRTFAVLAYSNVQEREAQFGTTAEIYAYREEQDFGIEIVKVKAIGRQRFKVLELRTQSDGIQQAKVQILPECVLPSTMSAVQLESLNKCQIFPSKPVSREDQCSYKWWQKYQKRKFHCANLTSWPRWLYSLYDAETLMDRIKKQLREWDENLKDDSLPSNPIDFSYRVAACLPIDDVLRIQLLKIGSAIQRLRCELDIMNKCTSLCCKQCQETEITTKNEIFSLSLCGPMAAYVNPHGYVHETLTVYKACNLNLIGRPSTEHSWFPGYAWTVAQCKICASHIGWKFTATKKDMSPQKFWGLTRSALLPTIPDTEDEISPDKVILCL
# Chain of GSPT1 (Q16531 whole entry partner): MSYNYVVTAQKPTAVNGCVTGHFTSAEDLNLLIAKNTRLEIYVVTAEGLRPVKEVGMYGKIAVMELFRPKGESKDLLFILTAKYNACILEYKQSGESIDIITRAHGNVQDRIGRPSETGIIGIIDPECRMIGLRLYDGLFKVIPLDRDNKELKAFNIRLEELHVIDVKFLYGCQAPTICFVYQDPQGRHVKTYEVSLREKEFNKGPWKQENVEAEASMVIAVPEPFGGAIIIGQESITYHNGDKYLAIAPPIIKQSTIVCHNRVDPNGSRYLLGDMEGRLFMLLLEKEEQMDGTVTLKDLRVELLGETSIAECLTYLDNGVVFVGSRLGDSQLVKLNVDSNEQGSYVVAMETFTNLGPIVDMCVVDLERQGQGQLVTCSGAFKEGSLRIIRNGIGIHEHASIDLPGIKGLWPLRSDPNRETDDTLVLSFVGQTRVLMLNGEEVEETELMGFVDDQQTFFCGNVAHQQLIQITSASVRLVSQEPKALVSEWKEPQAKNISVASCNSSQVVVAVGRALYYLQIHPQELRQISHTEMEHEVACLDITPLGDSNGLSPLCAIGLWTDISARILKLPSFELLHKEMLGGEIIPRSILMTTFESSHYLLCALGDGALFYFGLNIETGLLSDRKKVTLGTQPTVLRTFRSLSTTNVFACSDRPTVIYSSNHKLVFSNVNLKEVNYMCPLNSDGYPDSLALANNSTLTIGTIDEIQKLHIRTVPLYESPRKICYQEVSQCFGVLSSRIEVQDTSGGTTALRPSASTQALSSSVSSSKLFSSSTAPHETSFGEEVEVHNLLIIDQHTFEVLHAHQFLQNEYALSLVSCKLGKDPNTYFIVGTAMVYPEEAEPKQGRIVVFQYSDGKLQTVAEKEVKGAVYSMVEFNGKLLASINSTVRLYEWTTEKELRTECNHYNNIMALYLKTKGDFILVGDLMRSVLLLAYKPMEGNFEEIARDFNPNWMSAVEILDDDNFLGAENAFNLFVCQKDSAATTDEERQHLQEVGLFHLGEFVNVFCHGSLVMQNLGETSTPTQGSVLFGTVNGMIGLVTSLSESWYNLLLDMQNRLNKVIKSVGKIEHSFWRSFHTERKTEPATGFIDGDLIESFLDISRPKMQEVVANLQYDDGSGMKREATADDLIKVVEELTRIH
"DC50 [2, 5] [nM]",Structure (SMILES),"IC50 [1, 3] [nM]","DC50 [2, 4] [nM]","IC50 ([1]; NCI-H1155, 72 h) [nM]"
,"O=C1CCC(N2Cc3cc(C(=O)N4Cc5cc(F)cc(F)c5C4)ccc3C2=O)C(=O)N1 (stereo not drawn) [Example 103, 3-(5-(4,6-difluoroisoindoline-2-carbonyl)-1-oxoisoindolin-2-yl)piperidine-2,6-dione]",< 10,< 100,
300 to 1000,"O=C1CCC(c2nc3ccc(C(=O)N4CCc5ccc(F)cc54)cc3o2)C(=O)N1 (stereo not drawn) [Example 107, 3-(6-(6-fluoroindoline-1-carbonyl)benzo[d]oxazol-2-yl)piperidine-2,6-dione]",100 to 1000,,
,"O=C1CCC(N2Cc3cc(C(=O)N4Cc5ccc(F)c(F)c5C4)ccc3C2=O)C(=O)N1 (stereo not drawn) [Example 109, 3-(5-(4,5-difluoroisoindoline-2-carbonyl)-1-oxoisoindolin-2-yl)piperidine-2,6-dione]",10 to 100,< 100,
,"O=C1CCC(N2Cc3cc(C(=O)N4Cc5cccc(Cl)c5C4)ccc3C2=O)C(=O)N1 (stereo not drawn) [Example 112, 3-(5-(4-chloroisoindoline-2-carbonyl)-1-oxoisoindolin-2-yl)piperidine-2,6-dione]",< 10,< 100,
,"Cc1cccc2c1CN(C(=O)c1ccc3c(c1)CN(C1CCC(=O)NC1=O)C3=O)C2 (stereo not drawn) [Example 130, 3-(5-(4-methylisoindoline-2-carbonyl)-1-oxoisoindolin-2-yl)piperidine-2,6-dione]",10 to 100,< 100,
,"C[C@@H]1CN(C(=O)c2ccc3c(c2)CN(C2CCC(=O)NC2=O)C3=O)c2cc(F)ccc21 (stereo partly drawn) [Example 133, 3-(5-((S)-6-fluoro-3-methylindoline-1-carbonyl)-1-oxoisoindolin-2-yl)piperidine-2,6-dione]",< 10,< 100,
300 to 1000,"O=C1CCC(c2nc3ccc(C(=O)N4Cc5cccc(F)c5C4)cc3o2)C(=O)N1 (stereo not drawn) [Example 137, 3-(6-(4-fluoroisoindoline-2-carbonyl)benzo[d]oxazol-2-yl)piperidine-2,6-dione]",100 to 1000,,
,"O=C1CCC(N2Cc3cc(C(=O)N4CC5(CC(C(F)(F)F)C5)C4)ccc3C2=O)C(=O)N1 (stereo not drawn) [Example 145, 3-(1-oxo-5-(6-(trifluoromethyl)-2-azaspiro[3.3]heptane-2-carbonyl)isoindolin-2-yl)piperidine-2,6-dione]",10 to 100,> 1000,
,"O=C1CCC(N2Cc3cc(C(=O)N4Cc5c(F)ccc(F)c5C4)ccc3C2=O)C(=O)N1 (stereo not drawn) [Example 147, 3-(5-(4,7-difluoroisoindoline-2-carbonyl)-1-oxoisoindolin-2-yl)piperidine-2,6-dione]",10 to 100,< 100,
100 to 300,"O=C1CCC(c2nc3ccc(C(=O)N4Cc5cccc(Cl)c5C4)cc3o2)C(=O)N1 (stereo not drawn) [Example 158, 3-(6-(4-chloroisoindoline-2-carbonyl)benzo[d]oxazol-2-yl)piperidine-2,6-dione]",10 to 100,,
100 to 300,"Cc1cccc2c1CN(C(=O)c1ccc3nc(C4CCC(=O)NC4=O)oc3c1)C2 (stereo not drawn) [Example 161, 3-(6-(4-methylisoindoline-2-carbonyl)benzo[d]oxazol-2-yl)piperidine-2,6-dione]",10 to 100,,
,"O=C1CCC(N2Cc3cc(C(=O)N4CC5(C=C(c6ccc(F)cc6)C5)C4)ccc3C2=O)C(=O)N1 (stereo not drawn) [Example 169, 3-(5-(6-(4-fluorophenyl)-2-azaspiro[3.3]hept-5-ene-2-carbonyl)-1-oxoisoindolin-2-yl)piperidine-2,6-dione]",10 to 100,> 1000,
300 to 1000,"O=C1CCC(c2nc3ccc(C(=O)N4Cc5cccc(C(F)(F)F)c5C4)cc3o2)C(=O)N1 (stereo not drawn) [Example 174, 3-(6-(4-(trifluoromethyl)isoindoline-2-carbonyl)benzo[d]oxazol-2-yl)piperidine-2,6-dione]",100 to 1000,,
300 to 1000,"O=C1CCC(c2nc3ccc(C(=O)N4Cc5cc(F)cc(F)c5C4)cc3o2)C(=O)N1 (stereo not drawn) [Example 176, 3-(6-(4,6-difluoroisoindoline-2-carbonyl)benzo[d]oxazol-2-yl)piperidine-2,6-dione]",100 to 1000,,
300 to 1000,"O=C1CCC(c2nc3ccc(C(=O)N4Cc5cc(F)cc(Cl)c5C4)cc3o2)C(=O)N1 (stereo not drawn) [Example 178, 3-(6-(4-chloro-6-fluoroisoindoline-2-carbonyl)benzo[d]oxazol-2-yl)piperidine-2,6-dione]",10 to 100,,
,"O=C1CCC(N2Cc3cc(C(=O)N4Cc5cccc(F)c5C45CC5)ccc3C2=O)C(=O)N1 (stereo not drawn) [Example 182, 3-(5-(7′-fluorospiro[cyclopropane-1,1′-isoindoline]-2′-carbonyl)-1-oxoisoindolin-2-yl)piperidine-2,6-dione]",< 10,< 100,

"DC50 [2, 5] [nM]",Structure (SMILES),"IC50 [1, 3] [nM]","DC50 [2, 4] [nM]","IC50 ([1]; NCI-H1155, 72 h) [nM]"
100 to 300,"O=C1CCC(N2Cc3cc(C(=O)N4CC5(CCC(OC(F)(F)F)CC5)C4)ccc3C2=O)C(=O)N1 (stereo not drawn) [Example 184, 3-(1-oxo-5-(7-(trifluoromethoxy)-2-azaspiro[3.5]nonane-2-carbonyl)isoindolin-2-yl)piperidine-2,6-dione]",10 to 100,,
,"O=C1CCC(N2Cc3cc(C(=O)N4CCC5(C4)CC(F)(F)C5)ccc3C2=O)C(=O)N1 (stereo not drawn) [Example 189, 3-(5-(2,2-difluoro-6-azaspiro[3.4]octane-6-carbonyl)-1-oxoisoindolin-2-yl)piperidine-2,6-dione]",100 to 1000,> 1000,
< 100,"O=C1CCC(N2Cc3cc(C(=O)N4CC5(CC(c6ccccc6F)C5)C4)ccc3C2=O)C(=O)N1 (stereo not drawn) [Example 196, 3-(5-(6-(2-fluorophenyl)-2-azaspiro[3.3]heptane-2-carbonyl)-1-oxoisoindolin-2-yl)piperidine-2,6-dione]",10 to 100,,
> 1000,"O=C1CCC(c2nc3ccc(C(=O)N4Cc5ccc(F)c(Cl)c5C4)cc3o2)C(=O)N1 (stereo not drawn) [Example 197, 3-(6-(4-chloro-5-fluoroisoindoline-2-carbonyl)benzo[d]oxazol-2-yl)piperidine-2,6-dione]",100 to 1000,,
> 1000,"O=C1CCC(c2nc3ccc(C(=O)N4CC5(CCC(F)(F)C5)C4)cc3o2)C(=O)N1 (stereo not drawn) [Example 198, 3-(6-(6,6-difluoro-2-azaspiro[3.4]octane-2-carbonyl)benzo[d]oxazol-2-yl)piperidine-2,6-dione]",> 1000,,
> 1000,"Cc1cc(F)c2c(c1)CN(C(=O)c1ccc3nc(C4CCC(=O)NC4=O)oc3c1)C2 (stereo not drawn) [Example 199, 3-(6-(4-fluoro-6-methylisoindoline-2-carbonyl)benzo[d]oxazol-2-yl)piperidine-2,6-dione]",100 to 1000,,
> 1000,"N#Cc1cc(F)c2c(c1)CN(C(=O)c1ccc3nc(C4CCC(=O)NC4=O)oc3c1)C2 (stereo not drawn) [Example 200, 2-(2-(2,6-dioxopiperidin-3-yl)benzo[d]oxazole-6-carbonyl)-7-fluoroisoindoline-5-carbonitrile]",100 to 1000,,
,"O=C1CCC(N2Cc3cc(C(=O)N4CCC5(CCC(F)(F)C5)C4)ccc3C2=O)C(=O)N1 (stereo not drawn) [Example 201, 3-(5-(7,7-difluoro-2-azaspiro[4.4]nonane-2-carbonyl)-1-oxoisoindolin-2-yl)piperidine-2,6-dione]",100 to 1000,> 1000,
,"O=C1CCC(N2Cc3cc(C(=O)N4CC(F)(c5ccccc5F)C4)ccc3C2=O)C(=O)N1 (stereo not drawn) [Example 202, 3-(5-(3-fluoro-3-(2-fluorophenyl)azetidine-1-carbonyl)-1-oxoisoindolin-2-yl)piperidine-2,6-dione]",10 to 100,100 to 300,
,"O=C1CCC(N2Cc3cc(C(=O)N4CC5(C4)CC(F)(c4cccc(F)c4)C5)ccc3C2=O)C(=O)N1 (stereo not drawn) [Example 203, 3-(5-(6-fluoro-6-(3-fluorophenyl)-2-azaspiro[3.3]heptane-2-carbonyl)-1-oxoisoindolin-2-yl)piperidine-2,6-dione]",,> 1000,100 to 1000
,"O=C1CCC(N2Cc3cc(C(=O)N4CC5(C4)CC(F)(c4ccccc4F)C5)ccc3C2=O)C(=O)N1 (stereo not drawn) [Example 204, 3-(5-(6-fluoro-6-(2-fluorophenyl)-2-azaspiro[3.3]heptane-2-carbonyl)-1-oxoisoindolin-2-yl)piperidine-2,6-dione]",100 to 1000,100 to 300,
,"O=C1CCC(N2Cc3cc(C(=O)NC4CC5(C=C(c6ccc(C(F)(F)F)cc6)C5)C4)ccc3C2=O)C(=O)N1 (stereo not drawn) [Example 256, 2-(2,6-dioxopiperidin-3-yl)-1-oxo-N-(6-(4-(trifluoromethyl)phenyl)spiro[3.3]hept-5-en-2-yl)isoindoline-5-carboxamide]",100 to 1000,,
,"O=C1CCC(c2nc3ccc(C(=O)N4CC5(CCC(C(F)(F)F)CC5)C4)cc3o2)C(=O)N1 (stereo not drawn) [Example 259, 3-(6-(7-(trifluoromethyl)-2-azaspiro[3.5]nonane-2-carbonyl)benzo[d]oxazol-2-yl)piperidine-2,6-dione]",> 1000,,
,"O=C1CCC(c2nc3cc(COC(=O)NC4CC5(CCC(F)(F)CC5)C4)ccc3o2)C(=O)N1 (stereo not drawn) [Example 260, (2-(2,6-dioxopiperidin-3-yl)benzo[d]oxazol-5-yl)methyl (7,7-difluorospiro[3.5]nonan-2-yl)carbamate]",100 to 1000,,
,"O=C1CCC(c2nc3cc(COC(=O)N4CC5(C4)CC(F)(F)C5)ccc3o2)C(=O)N1 (stereo not drawn) [Example 262, (2-(2,6-dioxopiperidin-3-yl)benzo[d]oxazol-5-yl)methyl 6,6-difluoro-2-azaspiro[3.3]heptane-2-carboxylate]",> 1000,,

Structure (SMILES),"DC50 [2, 5] [nM]","IC50 [1, 3] [nM]","DC50 [2, 4] [nM]","IC50 ([1]; NCI-H1155, 72 h) [nM]"
"O=C1CCC(c2nc3cc(COC(=O)Nc4cc(OC(F)(F)F)ccc4F)ccc3o2)C(=O)N1 (stereo not drawn) [Example 164, (2-(2,6-dioxopiperidin-3-yl)benzo[d]oxazol-5-yl)methyl (2-fluoro-5-(trifluoromethoxy)phenyl)carbamate]",100 to 300,10 to 100,,
